{"source": "patent USRE39220E1", "about": "“Peptide-mediated gene transfer” (Genetic Applications, LLC, priority 1994, dated 2006)", "type_in_all_cases": "cell-based", "key": {"[1]": {"test_system": "COS cells", "test": "Transient expression of β-gal reporter gene (CH110) in COS cells", "details": "DNA-polypeptide 2.5-5.0 μg, stained 48 hrs after transfection", "protocol": "(§1) While the complex is formed, the cells that are to be transfected either remain attached to a substratum, such as a tissue culture dish, or are pelleted (for cells that grow in suspension). The cells are treated with a hypertonic primer solution, such as a concentration of 0.3M-0.6M sucrose and 10% PEG in either Tris-HCl or HEPES (pH 7.2) buffered solution, for 3-5 mins at room temperature. The primer solution then is removed.\nAfter the DNA-polypeptide complex is formed, it is made hypotonic. The complex solution is hypotonic when it has a lesser osmotic pressure than a 0.15M or 0.9% solution of NaCl. For example, the complex in isotonic buffer can be made […] hypotonic or 0.075M simply by adding an amount of distilled water that is equal to the volume of the complex in isotonic buffer. The hypotonic complex solution then is added to the cells that have been treated with the primer solution. Cells remain in the hypotonic DNA-polypeptide solution for 3-4 minutes. Fresh medium then is added to the cells to rinse away excess DNA-polypeptide solution. Thereafter, the cells are grown normally.\nThree different cell lines were used to test the efficiency of gene transfer of the new method. Mouse fibroblast cell line (L cells), mouse erythroleukemia cell line (C19TK), and COS cells. The COS cell line was used to establish conditions for transient gene expression. […]"}, "[2]": {"test_system": "Mouse fibroblast cell line (L cells)", "test": "Selection of stably transfected cell lines (G418-resistant colonies)", "details": "G418 400 μg/ml selection, colonies counted two weeks after start of selection, similar with hygromycin", "source_text": "The DNA or other polynucleotide to be transfected, such as a plasmid containing a gene for a drug resistance marker or coding a protein needed for expression in the host cell, is complexed to a synthetic polypeptide molecule in different weight ratios in an isotonic buffer solution. For example the weight ratio of DNA:polypeptide can be between 1:1 and 10:1, although ratios outside of this range may be evaluated empirically for achieving the objects of the present invention. An isotonic buffer solution such as Hanks buffered salt solution or HEPES buffered saline may be used for complexing DNA to polypeptide.\nas §1\nAfter the DNA-polypeptide complex is formed, it is made hypotonic. […]\nTransfected cells are grown in regular growth medium for 48 hours, and then plated in selective medium containing 400 μg/ml of G418. […] The number of G418-resistant colonies was determined two weeks after the initiation of selection. […]"}, "[3]": {"test_system": "mouse erythroleukemia cell line, C19TK", "test": "Stable transfection of hematopoietic cells in suspension, hygromycin selection (pDR2)", "details": "pDR2, hygromycin selection in microtiter plates, plated 48 hours after transfection", "protocol": "A mouse erythroleukemia cell line, C19TK, also was used as a representative cell line for testing the transfection efficiency of the present invention with respect to hematopoietic cells. The expression vector, pDR2, which carries a hygromycin-resistance gene, was used for these studies, C19TK cells are exquisitely sensitive for the antibiotic hygromycin.\nBriefly, about million cells are spun down and the cell pellet is treated with primer. The cells are then exposed to DNA-polypeptide complex under hypotonic condition. Forty-eight hours after transfection, a known number of cells are plated in microtiter plates with hygromycin. The number of wells with growing population of cells was enumerated to determine the transfection efficiency. The stable transfection efficiency was about 1-5%, as compared to most of the other non-virus-based methods that are very poor. Thus, the method described herein is very efficient for stable transfection efficiency both for hematopoietic and non hematopoietic cell lines. […] See Gilboa, et al. (1986), Miller, et al. (1986), Stuhlmann, et al. (1989), Miller, et al. (1989), and Zwiebel, et al. (1989), each cited above."}}}
{"sequence": "PKKKRKVSGGGGGKKKKKKKKKKKK [Peptide-Mediated Gene Transfer, synthetic polypeptide (NLS peptide, neutral hinge, polylysine chain) linked electrostatically to DNA, forming a polypeptide-DNA complex]", "values": [{"measurement": "cells positive for the expression of the β-gal reporter gene", "setting": "[1]", "result": "Forty to fifty"}, {"measurement": "Stable Transfection Efficiency", "setting": "[2]", "result": "5-10%"}, {"measurement": "Stable Transfection Efficiency", "setting": "[2]; listed as DNA-polypeptide complex", "result": "5-10%"}, {"measurement": "Stable Transfection Efficiency", "setting": "[3]", "result": "1-5%"}]}
